From PubChem BioAssay AID1918955 (Molecular Pharmacology Branch, DTP, NCI, 2023)

System: NCI/ADR-RES complex spheroid viability
Experiment: Anticancer human tumor NCI/ADR-RES cell line growth inhibition;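 on viability, T/C: 100% = DMSO vehicle treated spheroids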
Conditions: for IC50: curve of first compound; for viability, T/C: stronger effect = lower value; active means viability on the fitted dose curve at most 10% of control; inactive means the rest
In short: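 Complex spheroids of tumor cells with HUVEC and human MSCs, exposed to iadademstat combined with other agents. Each agent tested in half-log steps from near clinical Cmax (else 10 microM top), DMSO ≤0.25%.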

[1] = second compound 0.1 µM, first compound 0.000316 µM
[2] = second compound 0.1 µM, first compound 0.001 µM
[3] = second compound 0.1 µM, first compound 0.00316 µM
[4] = second compound 0.1 µM, first compound 0.01 µM
[5] = second compound 0.1 µM, first compound 0.0316 µM
[6] = second compound 0.1 µM, first compound 0.1 µM
[7] = second compound 0.316 µM, first compound 0.000316 µM
[8] = second compound 0.316 µM, first compound 0.001 µM
[9] = second compound 0.316 µM, first compound 0.00316 µM
[10] = second compound 0.316 µM, first compound 0.01 µM
[11] = second compound 0.316 µM, first compound 0.0316 µM
[12] = second compound 0.316 µM, first compound 0.1 µM
[13] = second compound 1 µM, first compound 0.000316 µM
[14] = second compound 1 µM, first compound 0.001 µM
[15] = second compound 1 µM, first compound 0.00316 µM
[16] = second compound 1 µM, first compound 0.01 µM
[17] = second compound 1 µM, first compound 0.0316 µM
[18] = second compound 1 µM, first compound 0.1 µM
[19] = second compound 3.16 µM, first compound 0.000316 µM
[20] = second compound 3.16 µM, first compound 0.001 µM
[21] = second compound 3.16 µM, first compound 0.00316 µM
[22] = second compound 3.16 µM, first compound 0.01 µM
[23] = second compound 3.16 µM, first compound 0.0316 µM
[24] = second compound 3.16 µM, first compound 0.1 µM
[25] = second compound 10 µM, first compound 0.000316 µM
[26] = second compound 10 µM, first compound 0.001 µM
[27] = second compound 10 µM, first compound 0.00316 µM
[28] = second compound 10 µM, first compound 0.01 µM
[29] = second compound 10 µM, first compound 0.0316 µM
[30] = second compound 10 µM, first compound 0.1 µM

CC(C)CC(NC(=O)C(Cc1ccccc1)NC(=O)c1cnccn1)B(O)O (stereo not given) + NC1CCC(NC2CC2c2ccccc2)CC1
10.2 nM: IC50 (second compound 0.1 µM)
9.37 nM: IC50 (second compound 3.16 µM)
inactive: viability, T/C [1] 103% | viability, T/C [2] 110% | viability, T/C [3] 92.4% | viability, T/C [4] 51.5% | viability, T/C [5] 10.4% | viability, T/C [7] 111% | viability, T/C [8] 101% | viability, T/C [9] 100% | viability, T/C [10] 58.1% | viability, T/C [13] 104% | viability, T/C [14] 98.4% | viability, T/C [15] 98.7% | viability, T/C [16] 46.7% | viability, T/C [19] 95.9% | viability, T/C [20] 97.1% | viability, T/C [21] 86.1% | viability, T/C [22] 48.3% | viability, T/C [25] 94.1% | viability, T/C [26] 85.4% | viability, T/C [27] 82.6% | viability, T/C [28] 31.4%
9.4 nM: IC50 (second compound 1 µM)
6.59 nM: IC50 (second compound 10 µM)
12.1 nM: IC50 (second compound 0.316 µM)
active: viability, T/C [6] 4% | viability, T/C [11] 9.17% | viability, T/C [12] 0.68% | viability, T/C [17] 8.19% | viability, T/C [18] 0.58% | viability, T/C [23] 7.8% | viability, T/C [24] 0.14% | viability, T/C [29] 8.41% | viability, T/C [30] 0.25%

CC(C)CC(NC(=O)CNC(=O)c1cc(Cl)ccc1Cl)B1OC(=O)CC(CC(=O)O)(C(=O)O)O1 (stereo not given) + NC1CCC(NC2CC2c2ccccc2)CC1
active: viability, T/C [6] 8.2% | viability, T/C [12] 4.8% | viability, T/C [18] 2.51% | viability, T/C [24] 3.89% | viability, T/C [30] 4.15%
inactive: viability, T/C [1] 104% | viability, T/C [2] 106% | viability, T/C [3] 107% | viability, T/C [4] 90.4% | viability, T/C [5] 46.6% | viability, T/C [7] 105% | viability, T/C [8] 109% | viability, T/C [9] 103% | viability, T/C [10] 92% | viability, T/C [11] 46.2% | viability, T/C [13] 100% | viability, T/C [14] 102% | viability, T/C [15] 102% | viability, T/C [16] 91.1% | viability, T/C [17] 44.2% | viability, T/C [19] 92.3% | viability, T/C [20] 98.3% | viability, T/C [21] 104% | viability, T/C [22] 83.5% | viability, T/C [23] 30.1% | viability, T/C [25] 91.4% | viability, T/C [26] 89.2% | viability, T/C [27] 87.8% | viability, T/C [28] 62.1% | viability, T/C [29] 21%
28.8 nM: IC50 (second compound 0.1 µM) | IC50 (second compound 0.316 µM)
14.2 nM: IC50 (second compound 10 µM)
27.4 nM: IC50 (second compound 1 µM)
20.7 nM: IC50 (second compound 3.16 µM)

COc1cc(Nc2ncc3c(n2)-c2ccc(Cl)cc2C(c2c(F)cccc2OC)=NC3)ccc1C(=O)O + NC1CCC(NC2CC2c2ccccc2)CC1
inactive: viability, T/C [3] 92% | viability, T/C [4] 71% | viability, T/C [5] 38% | viability, T/C [6] 23.2% | viability, T/C (second compound 0.1 µM, first compound 0.316 µM) 18.2% | viability, T/C (second compound 0.1 µM, first compound 1 µM) 20.5% | viability, T/C [9] 92% | viability, T/C [10] 75% | viability, T/C [11] 37.1% | viability, T/C [12] 18.1% | viability, T/C (second compound 0.316 µM, first compound 0.316 µM) 20% | viability, T/C (second compound 0.316 µM, first compound 1 µM) 17.4% | viability, T/C [15] 90.4% | viability, T/C [16] 61% | viability, T/C [17] 40.2% | viability, T/C [18] 18.6% | viability, T/C (second compound 1 µM, first compound 0.316 µM) 16.6% | viability, T/C (second compound 1 µM, first compound 1 µM) 18.8% | viability, T/C [21] 90.6% | viability, T/C [22] 63.4% | viability, T/C [23] 32.7% | viability, T/C [24] 19.1% | viability, T/C (second compound 3.16 µM, first compound 0.316 µM) 12.3% | viability, T/C (second compound 3.16 µM, first compound 1 µM) 12.7% | viability, T/C [27] 82% | viability, T/C [28] 63.7% | viability, T/C [29] 30.3% | viability, T/C [30] 17.5% | viability, T/C (second compound 10 µM, first compound 0.316 µM) 9.8%
16.6 nM: IC50 (second compound 3.16 µM)
21.2 nM: IC50 (second compound 0.316 µM)
20.8 nM: IC50 (second compound 0.1 µM)
17.5 nM: IC50 (second compound 1 µM)
16.1 nM: IC50 (second compound 10 µM)
active: viability, T/C (second compound 10 µM, first compound 1 µM) 8.65%

O=C(C=Cc1cccc(S(=O)(=O)Nc2ccccc2)c1)NO + NC1CCC(NC2CC2c2ccccc2)CC1
76.7 nM: IC50 (second compound 3.16 µM)
29.8 nM: IC50 (second compound 10 µM)
active: viability, T/C (second compound 0.1 µM, first compound 0.949 µM) 9.06% | viability, T/C (second compound 0.1 µM, first compound 3 µM) 2.6% | viability, T/C (second compound 0.316 µM, first compound 0.949 µM) 7.56% | viability, T/C (second compound 0.316 µM, first compound 3 µM) 2.59% | viability, T/C (second compound 1 µM, first compound 0.949 µM) 10.1% | viability, T/C (second compound 1 µM, first compound 3 µM) 1.53% | viability, T/C (second compound 3.16 µM, first compound 0.949 µM) 8.22% | viability, T/C (second compound 3.16 µM, first compound 3 µM) 5.29% | viability, T/C (second compound 10 µM, first compound 0.949 µM) 6.54% | viability, T/C (second compound 10 µM, first compound 3 µM) 6.09%
78.3 nM: IC50 (second compound 1 µM)
82.2 nM: IC50 (second compound 0.1 µM)
inactive: viability, T/C (second compound 0.1 µM, first compound 0.00949 µM) 99.7% | viability, T/C (second compound 0.1 µM, first compound 0.03 µM) 85.7% | viability, T/C (second compound 0.1 µM, first compound 0.0949 µM) 39.4% | viability, T/C (second compound 0.1 µM, first compound 0.3 µM) 24.7% | viability, T/C (second compound 0.316 µM, first compound 0.00949 µM) 97.1% | viability, T/C (second compound 0.316 µM, first compound 0.03 µM) 85.2% | viability, T/C (second compound 0.316 µM, first compound 0.0949 µM) 40.7% | viability, T/C (second compound 0.316 µM, first compound 0.3 µM) 17.5% | viability, T/C (second compound 1 µM, first compound 0.00949 µM) 104% | viability, T/C (second compound 1 µM, first compound 0.03 µM) 82% | viability, T/C (second compound 1 µM, first compound 0.0949 µM) 41.5% | viability, T/C (second compound 1 µM, first compound 0.3 µM) 19.4% | viability, T/C (second compound 3.16 µM, first compound 0.00949 µM) 95.6% | viability, T/C (second compound 3.16 µM, first compound 0.03 µM) 78.7% | viability, T/C (second compound 3.16 µM, first compound 0.0949 µM) 42.9% | viability, T/C (second compound 3.16 µM, first compound 0.3 µM) 17.8% | viability, T/C (second compound 10 µM, first compound 0.00949 µM) 75.2% | viability, T/C (second compound 10 µM, first compound 0.03 µM) 47.6% | viability, T/C (second compound 10 µM, first compound 0.0949 µM) 34.4% | viability, T/C (second compound 10 µM, first compound 0.3 µM) 16.6%
78.1 nM: IC50 (second compound 0.316 µM)
